14 compounds from US12161722B2, “Bifunctional heterocyclic compound having BTK degradation function via ubiquitin proteasome pathway, and use thereof” (KOREA RESEARCH INSTITUTE OF CHEMICAL TECHNOLOGY, priority 2021, dated 2024) can be followed below.

Broadly, the DC50 is the concentration giving 50% degradation.

Each structure is given as a SMILES string.

Assay [1] concerns the target T1, C481S BTK protein (Homo sapiens, UniProt Q06187, C481S).
T1 construct: expressed in transfected cells; host or cells: 293T BTK MUT (C481S) cells
The assay can be described thus: BTK protein degradation assay (Western blotting), C481S BTK. The following applies: concentration range accounting for 50% degradation of C481S BTK protein, 293T BTK MUT (C481S) cells. The class given is cell-based. In a few lines:
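TMD-8, RAMOS or 293T BTK C481S cells were treated 24 h with compounds from 10-fold DMSO stock series (10 to 0.0001 mM). BTK was measured by Western blot with GAPDH/β-actin references. Activity was binned by concentration giving 50% degradation: +++ (0.0001-0.01 μM), ++ (0.01-1 μM), + (1-10 μM), − (>10 μM).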

In assay [2] the target is T2, WT BTK protein (Homo sapiens, UniProt Q06187).
T2 construct: measured for intracellular BTK protein levels by Western blotting; endogenous in cells; host or cells: TMD-8 or RAMOS cells
The assay can be described thus: BTK protein degradation assay (Western blotting), WT BTK. The class given is cell-based. As to conditions: concentration range accounting for 50% degradation of WT BTK protein, TMD-8 or RAMOS cells, 24 hours. In a few lines:
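BTK levels were read by Western blotting (GAPDH and β-actin normalisers) in RIPA lysates of TMD-8 cells exposed to compounds for 24 h at 1×10^6 cells/mL. Results scored in ranges of the concentration producing 50% loss of WT BTK.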
In general terms: A western blot detects proteins with antibodies after separation by electrophoresis.

T2 sequence (Q06187 whole entry): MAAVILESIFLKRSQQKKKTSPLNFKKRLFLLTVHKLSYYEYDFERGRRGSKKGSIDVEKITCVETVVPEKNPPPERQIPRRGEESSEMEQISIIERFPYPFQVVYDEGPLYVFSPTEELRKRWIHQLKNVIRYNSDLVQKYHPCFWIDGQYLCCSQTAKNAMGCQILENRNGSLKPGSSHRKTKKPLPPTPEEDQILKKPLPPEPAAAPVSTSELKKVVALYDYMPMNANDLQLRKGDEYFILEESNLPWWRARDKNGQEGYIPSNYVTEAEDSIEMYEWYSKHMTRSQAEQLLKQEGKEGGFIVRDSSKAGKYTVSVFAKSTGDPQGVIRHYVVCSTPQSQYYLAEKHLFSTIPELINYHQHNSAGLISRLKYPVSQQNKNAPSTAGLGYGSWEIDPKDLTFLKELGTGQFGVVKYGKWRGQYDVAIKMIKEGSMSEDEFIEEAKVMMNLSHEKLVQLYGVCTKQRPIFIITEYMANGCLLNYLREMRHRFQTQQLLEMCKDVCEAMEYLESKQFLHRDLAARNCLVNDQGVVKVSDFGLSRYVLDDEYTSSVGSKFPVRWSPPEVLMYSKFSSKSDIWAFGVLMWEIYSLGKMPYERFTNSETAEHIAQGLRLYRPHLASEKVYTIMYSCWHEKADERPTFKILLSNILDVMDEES
T1 sequence (Q06187 whole entry C481S): as the sequence (Q06187 whole entry) above, with C481S counted along it

In the case of `Cc1cccc(C)c1Nc1nn(C)c2nc(Nc3ccc4c(c3)CN(CC3CCN(Cc5ccc6nnn(C7CCC(=O)NC7=O)c(=O)c6c5)CC3)CC4)ncc12` (stereo not shown) [Compound 46], the DC50 in assay [1] and in assay [2] was 10 to 1000 nM throughout.

As for `Cc1cccc(C)c1Nc1nn(C)c2nc(Nc3ccc4c(c3)CN(CC3CCN(c5ccc6c(=O)n(C7CCC(=O)NC7=O)nnc6c5)CC3)CC4)ncc12` (stereo not shown) [Compound 53, 3-(7-(4-((7-((3-((2,6-Dimethylphenyl)amino)-1-methyl-1H-pyrazolo[3,4-d]pyrimidin-6-yl)amino)-3,4-dihydroisoquinolin-2 (1H)-yl)methyl)piperidin-1-yl)-4-oxobenzo[d][1,2,3]triazin-3 (4H)-yl)piperidin-2,6-one], the DC50 in assay [1] fell in the range of 10 to 1000 nM; in assay [2], 0.1 to 10 nM.

Turning to `Cc1cccc(C)c1Nc1nn(C)c2nc(Nc3ccc4c(c3)CN(C(=O)C3CCN(C(=O)C5CCN(c6ccc7c(c6)C(=O)N(C6CCC(=O)NC6=O)C7=O)CC5)CC3)CC4)ncc12` (stereo not shown) [Compound 54, 5-(4-(4-(7-((3-((2,6-Dimethylphenyl)amino)-1-methyl-1H-pyrazolo[3,4-d]pyrimidin-6-yl)amino)-1,2,3,4-tetrahydroisoquinoline-2-carbonyl)piperidine-1-carbonyl)piperidin-1-yl)-2-(2,6-dioxopiperidin-3-yl)isoindoline-1,3-dione], the DC50 was in the range of 10 to 1000 nM in assay [1] and 0.1 to 10 nM in assay [2].

Take `Cc1cccc(C)c1Nc1nn(C)c2nc(Nc3ccc4c(c3)CN(C(=O)C3CCN(C(=O)COc5ccc6nnn(C7CCC(=O)NC7=O)c(=O)c6c5)CC3)CC4)ncc12` (stereo not shown) [Compound 55, 3-(6-(2-(4-(7-((3-((2,6-Dimethylphenyl)amino)-1-methyl-1H-pyrazolo[3,4-d]pyrimidin-6-yl)amino)-1,2,3,4-tetrahydroisoquinoline-2-carbonyl)piperidin-1-yl)-2-oxoethoxy)-4-oxobenzo[d][1,2,3]triazin-3 (4H)-yl)piperidin-2,6-one]: the values for the DC50 in assay [1] and in assay [2] were 10 to 1000 nM and 0.1 to 10 nM, respectively.

As to `Cc1cccc(C)c1Nc1nn(C)c2nc(Nc3ccc4c(c3)CN(C(=O)C3CCN(c5ccc6c(c5)C(=O)N(C5CCC(=O)NC5=O)C6=O)CC3)CC4)ncc12` (stereo not shown) [Compound 56, 5-(4-(7-((3-((2,6-Dimethylphenyl)amino)-1-methyl-1H-pyrazolo[3,4-d]pyrimidin-6-yl)amino)-1,2,3,4-tetrahydroisoquinoline-2-carbonyl)piperidin-1-yl)-2-(2,6-dioxopiperidin-3-yl)isoindoline-1,3-dione], the DC50 in assay [1] and in assay [2] was 10 to 1000 nM each time.

Regarding `Cc1cccc(C)c1Nc1nn(C)c2nc(Nc3ccc4c(c3)CN(C(=O)C3CCN(C(=O)CNc5ccc6nnn(C7CCC(=O)NC7=O)c(=O)c6c5)CC3)CC4)ncc12` (stereo not shown) [Compound 57], the DC50 in assay [1] lay within 10 to 1000 nM; in assay [2], 0.1 to 10 nM.

Consider `Cc1cccc(C)c1Nc1nn(C)c2nc(Nc3ccc4c(c3)CN(C(=O)C3CCN(c5ccc6nnn(C7CCC(=O)NC7=O)c(=O)c6c5)CC3)CC4)ncc12` (stereo not shown) [Compound 58, 3-(6-(4-(7-((3-((2,6-Dimethylphenyl)amino)-1-methyl-1H-pyrazolo[3,4-d]pyrimidin-6-yl)amino)-1,2,3,4-tetrahydroisoquinoline-2-carbonyl)piperidin-1-yl)-4-oxobenzo[d][1,2,3]triazin-3 (4H)-yl)piperidin-2,6-one], for which the DC50 was in the range of 10 to 1000 nM in assay [1] and 0.1 to 10 nM in assay [2].

As to `Cc1cccc(C)c1Nc1nn(C)c2nc(Nc3ccc4c(c3)CN(C(=O)C3CCN(c5cccc6nnn(C7CCC(=O)NC7=O)c(=O)c56)CC3)CC4)ncc12` (stereo not shown) [Compound 59], the DC50 in assay [1] fell in the range of 1000 to 10000 nM; in assay [2] it was 0.1 to 10 nM.

As to `Cc1cccc(C)c1Nc1nn(C)c2nc(Nc3ccc4c(c3)CN(C(=O)C3CCN(C(=O)C5CCN(c6ccc7c(=O)n(C8CCC(=O)NC8=O)nnc7c6)CC5)CC3)CC4)ncc12` (stereo not shown) [Compound 60, 3-(7-(4-(4-(7-((3-((2,6-Dimethylphenyl)amino)-1-methyl-1H-pyrazolo[3,4-d]pyrimidin-6-yl)amino)-1,2,3,4-tetrahydroisoquinoline-2-carbonyl)piperidine-1-carbonyl)piperidin-1-yl)-4-oxobenzo[d][1,2,3]triazin-3 (4H)-yl)piperidin-2,6-one], the DC50 in assay [1] lay in the range of 10 to 1000 nM; in assay [2] it was 0.1 to 10 nM.

With `Cc1cccc(C)c1Nc1nn(C)c2nc(Nc3ccc4c(c3)CN(CC3CCN(C(=O)C5CCN(c6ccc7c(=O)n(C8CCC(=O)NC8=O)nnc7c6)CC5)CC3)CC4)ncc12` (stereo not shown) [Compound 61, 3-(7-(4-(4-((7-((3-((2,6-Dimethylphenyl)amino)-1-methyl-1H-pyrazolo[3,4-d]pyrimidin-6-yl)amino)-3,4-dihydroisoquinolin-2 (1H)-yl)methyl)piperidine-1-carbonyl)piperidin-1-yl)-4-oxobenzo[d][1,2,3]triazin-3 (4H)-yl)piperidin-2,6-one], the DC50 in assay [1] and in assay [2] was 0.1 to 10 nM each time.

Take `Cc1cccc(C)c1Nc1nn(C)c2nc(Nc3ccc4c(c3)CN(CC3CCN(C(=O)C5CCN(c6cccc7nnn(C8CCC(=O)NC8=O)c(=O)c67)CC5)CC3)CC4)ncc12` (stereo not shown) [Compound 62, 3-(5-(4-(4-((7-((3-((2,6-Dimethylphenyl)amino)-1-methyl-1H-pyrazolo[3,4-d]pyrimidin-6-yl)amino)-3,4-dihydroisoquinolin-2 (1H)-yl)methyl)piperidine-1-carbonyl)piperidin-1-yl)-4-oxobenzo[d][1,2,3]triazin-3 (4H)-yl)piperidin-2,6-one]: the DC50 in assay [1] is 10 to 1000 nM; in assay [2], 0.1 to 10 nM.

Consider `Cc1cccc(C)c1Nc1nn(C)c2nc(Nc3ccc4c(c3)CN(CC3CCN(C(=O)CNc5ccc6c(=O)n(C7CCC(=O)NC7=O)nnc6c5)CC3)CC4)ncc12` (stereo not shown) [Compound 63, 3-(7-((2-(4-((7-((3-((2,6-Dimethylphenyl)amino)-1-methyl-1H-pyrazolo[3,4-d]pyrimidin-6-yl)amino)-3,4-dihydroisoquinolin-2 (1H)-yl)methyl)piperidin-1-yl)-2-oxoethyl)amino)-4-oxobenzo[d][1,2,3]triazin-3 (4H)-yl)piperidin-2,6-one], for which the figures for the DC50 in assay [1] and in assay [2] were 10 to 1000 nM and 0.1 to 10 nM, respectively.

Regarding `Cc1cccc(Cl)c1Nc1nn(C)c2nc(Nc3ccc4c(c3)CN(CC3CCN(c5ccc6c(c5)C(=O)N(C5CCC(=O)NC5=O)C6=O)CC3)CC4)ncc12` (stereo not shown) [Compound 85, 5-(4-((7-((3-((2-Chloro-6-methylphenyl)amino)-1-methyl-1H-pyrazolo[3,4-d]pyrimidin-6-yl)amino)-3,4-dihydroisoquinolin-2 (1H)-yl)methyl)piperidin-1-yl)-2-(2,6-dioxopiperidin-3-yl)isoindoline-1,3-dione], the DC50 in assay [1] and in assay [2] was 0.1 to 10 nM each time.

Consider `Cc1cccc(C)c1Nc1nn(C)c2nc(Nc3ccc4c(c3)CN(C3CCN(c5ccc6c(c5)C(=O)N(C5CCC(=O)NC5=O)C6=O)CC3)CC4)ncc12` (stereo not shown) [Compound 88, 5-(4-(7-((3-((2,6-dimethylphenyl)amino)-1-methyl-1H-pyrazolo[3,4-d]pyrimidin-6-yl)amino)-3,4-dihydroisoquinolin-2 (1H)-yl)piperidin-1-yl)-2-(2,6-dioxopiperidin-3-yl)isoindoline-1,3-dione], for which the DC50 in assay [1] and in assay [2] was 0.1 to 10 nM throughout.
